# Where “and” joins values, the source holds several entries; their conditions need not be identical. Equal values may be shown once. Read-outs that look alike come from different tables or passages of the source. Bridge positions count the residues as written; N and C are the ends. Square brackets hold non-standard residues; d marks the D form. Peptide text beside a SMILES is read from it. R8 = C=CCCCCCC[C@@](C)(N)C(=O)O; S5 = C=CCCC[C@](C)(N)C(=O)O; Nle = CCCC[C@H](N)C(=O)O
# How the values were obtained:
# [1] = system: influenza virus, various viral strains; assay: organism not typed; assay type: cell-based
# H1N1 California/07/2009 [2] = assay: microbe, parasite or virus in culture; assay type: cell-based, influenza A virus
# [3] = system: influenza virus, various viral strains; assay type: cell-based; conditions: VYR/Neutral Red
# H3N2 Perth/16/2009 [4] = assay: microbe, parasite or virus in culture; assay type: cell-based, influenza A virus
# H7N9 A/Anhui/1/2013 = assay: microbe, parasite or virus in culture; assay type: cell-based, influenza A virus
# H3N2 Perth/16/2009 [5] = assay: microbe, parasite or virus in culture; assay type: cell-based, influenza A virus; remark: listed apart in the source
# [6] = system: H1N1 A/Solomon Island/03/2006; assay type: cell-based, influenza A virus; conditions: Influenza A H1N1 A/Solomon Is./3/2006-M; Drug Assay Neutral Red; read-out: EC50
# [7] = system: H5N1 A/Hong Kong/213/2003; assay: microbe, parasite or virus in culture; assay type: cell-based, influenza A virus
# in vitro = conditions: dog
# H1N1 California/07/2009 [8] = assay: microbe, parasite or virus in culture; assay type: cell-based, influenza A virus; conditions: for EC50: read-out: EC50 (μM) H1N1 California/07/2009
# [9] = system: Influenza A H3N2 Influenza A/Brisbane/10/2007; assay: microbe, parasite or virus in culture; assay type: cell-based, influenza A virus; conditions: Influenza A virus, H3N2, MDCK
# [10] = system: Influenza A H1N1 Influenza A/Texas/4/2009; assay: microbe, parasite or virus in culture; assay type: cell-based, influenza A virus; conditions: Influenza A virus, H1N1, MDCK
# [11] = system: Influenza B Florida/04/2006; assay: Cytopathic effect (CPE) inhibition in MDCK cells, neutral red; assay type: cell-based; conditions: Influenza B virus, MDCK; Influenza B Florida/04/2006; Neutral Red; read-out: EC50
# [12] = system: influenza virus, various viral strains; assay: Influenza antiviral evaluation assay (CPE, neutral red dye uptake) in MDCK cells against various viral strains (Tables 8, 9); assay type: cell-based
# [13] = system: Influenza A H1N1 Influenza A/California/7/2009; assay: microbe, parasite or virus in culture; assay type: cell-based, influenza A virus; conditions: Influenza A virus, H1N1, MDCK
# H5N1 A/Duck/MN/1525/81 = assay: microbe, parasite or virus in culture; assay type: cell-based, influenza A virus; conditions: Influenza A H5N1 Duck/MN/1525/81, Neutral Red
# [14] = system: Influenza B/Brisbane/60/2008; assay: microbe, parasite or virus in culture; assay type: cell-based; conditions: Influenza B virus, MDCK; Influenza B Influenza B/Brisbane/60/2008; CellTiter-Glo
# H1N1 A/Brisbane/59/2007 = assay: Cytopathic effect (CPE) inhibition in MDCK cells, neutral red; assay type: cell-based, influenza A virus
# [15] = system: Influenza B Brisbane/60/2008; assay: as above; assay type: cell-based; conditions: Influenza B virus, MDCK; Influenza B Brisbane/60/2008; Neutral Red; read-out: EC50
# [16] = system: Madin Darby canine kidney (MDCK) cells
# [17] = MDCK, Influenza A H5N1 Duck/MN/1525/81, Visual
# [18] = Influenza A virus, H3N2, MDCK, read-out: EC50 (μM) H3N2 Perth/16/2009
smiles,measurement,setting,value
CCCC[C@H](NC(C)=O)C(=O)N[C@@H](CC(=O)O)C(=O)N[C@H](C(=O)N[C@@H](CC(N)=O)C(=O)N[C@]1(C)CCCCCCC=CCCC[C@@](C)(C(=O)N[C@@H](C)C(=O)N[C@@H](C)C(=O)N[C@@H](CCC(N)=O)C(N)=O)NC(=O)[C@H](C)NC(=O)[C@H](CC(C)C)NC(=O)[C@H](Cc2ccccc2)NC(=O)[C@H](CC(C)C)NC(=O)[C@H](CC(C)C)NC(=O)[C@H]([C@@H](C)O)NC1=O)C(C)C [SP-18] (Ac-[Nle]DVN[R8]TLLFLA[S5]AAQ-NH2; staple 5-12),EC50,"[1]; Influenza A H1N1 A/Solomon Is./3/2006-M, Drug Assay Visual, read-out: EC50",13 µM
same,EC50,[1]; read-out: EC50,> 50 µM
same,EC50,"H1N1 California/07/2009 [2]; Cytopathic effect/toxicity (Neutral red), MDCK cells, read-out: EC50 (μM) H1N1 California/07/2009",1.5 to 10 µM
same,EC50,"H1N1 California/07/2009 [2]; Influenza A H1N1 California/07/20/09 (so in the source), later run, Drug Assay Neutral Red, read-out: EC50",7 µM
same,EC90,"H1N1 California/07/2009 [2]; Influenza A H1N1 California/07/20/09 (so in the source), Drug Assay Visual/Neutral Red",4 µM
same,EC50,"H1N1 California/07/2009 [2]; Influenza A H1N1 California/07/2009, Drug Assay Neutral Red, read-out: EC50",3.8 µM
same,EC90,[3]; Influenza A H1N1 California/07/2009,6.4 µM
same,EC90,[3]; Influenza A H3N2 Perth/16/2009,> 100 µM
same,EC50,"H3N2 Perth/16/2009 [4]; Cytopathic effect/toxicity (Visual), MDCK cells, read-out: EC50 (μM) H3N2 Perth/16/2009",25 to 50 µM
same,EC50,"H3N2 Perth/16/2009 [4]; Influenza A H3N2 Perth/16/2006 (so in the source), Drug Assay Visual, read-out: EC50",14 µM
same,EC50,H7N9 A/Anhui/1/2013; read-out: EC50,> 50 µM
same,EC50,"H3N2 Perth/16/2009 [5]; Cytopathic effect/toxicity (Neutral red), MDCK cells, read-out: EC50 (μM) H3N2 Perth/16/2009",25 to 50 µM
same,EC50,"H3N2 Perth/16/2009 [5]; Influenza A H3N2 Perth/16/2006 (so in the source), Drug Assay Neutral Red, read-out: EC50",22 µM
same,EC50,"H3N2 Perth/16/2009 [5]; Influenza A H3N2 Perth/16/2009, last run, Drug Assay Neutral Red, read-out: EC50",> 100 µM
same,EC90,"H3N2 Perth/16/2009 [5]; Influenza A H3N2 Perth/16/2009, Drug Assay Visual/Neutral Red",> 100 µM
same,EC50,"H3N2 Perth/16/2009 [5]; Influenza A H3N2 Perth/16/2009, Neutral Red, read-out: EC50",33 µM
same,EC50,[6],29 µM
same,EC50,[7]; read-out: EC50,> 50 µM
same,CC50,in vitro; CC50,> 50 µM
same,CC50,"in vitro; CC50 (μM) H1N1 California/07/2009, Cell cytotoxicity (CC), run with H1N1 California/07/2009",> 100 µM
same,CC50,"in vitro; CC50 (μM) H3N2 Perth/16/2009, Cell cytotoxicity (CC), run with H3N2 Perth/16/2009",> 100 µM
same,CC50,"in vitro; CC50, MDCK cells, run with Influenza A H1N1 California/07/2009, Neutral Red",> 100 µM
same,CC50,"in vitro; CC50, MDCK cells, run with Influenza A H1N1 California/07/2009, VYR/Neutral Red",> 100 µM
same,CC50,"in vitro; CC50, MDCK cells, run with Influenza A H1N1 California/07/2009, Visual",> 100 µM
same,CC50,"in vitro; CC50, MDCK cells, run with Influenza A H3N2 Perth/16/2009, Neutral Red",> 100 µM
same,CC50,"in vitro; CC50, MDCK cells, run with Influenza A H3N2 Perth/16/2009, VYR/Neutral Red",> 100 µM
same,CC50,"in vitro; CC50, run with Influenza A H1N1 A/Solomon Is./3/2006-M, Neutral Red",> 100 µM
same,CC50,"in vitro; CC50, run with Influenza A H1N1 A/Solomon Is./3/2006-M, Visual",> 100 µM
same,CC50,"in vitro; CC50, run with Influenza A H1N1 California/07/20/09 (so in the source), later run, Neutral Red",> 100 µM
same,CC50,"in vitro; CC50, run with Influenza A H1N1 California/07/20/09 (so in the source), Visual/Neutral Red",> 100 µM
same,CC50,"in vitro; CC50, run with Influenza A H1N1 California/07/2009, Neutral Red",> 100 µM
same,CC50,"in vitro; CC50, run with Influenza A H3N2 Perth/16/2006 (so in the source), Neutral Red",> 100 µM
same,CC50,"in vitro; CC50, run with Influenza A H3N2 Perth/16/2006 (so in the source), Visual",> 100 µM
same,CC50,"in vitro; CC50, run with Influenza A H3N2 Perth/16/2009, last run, Neutral Red",> 100 µM
same,CC50,"in vitro; CC50, run with Influenza A H3N2 Perth/16/2009, Visual/Neutral Red",> 100 µM
same,EC50,"H1N1 California/07/2009 [8]; Cytopathic effect/toxicity (Visual), MDCK cells",1.5 to 10 µM
"NC(=O)c1ncn([C@@H]2O[C@H](CO)[C@@H](O)[C@H]2O)n1 [Ribavirin, reference compound]",EC90,[1],4.1 µM
same,EC90,[1]; MDCK,5.2 µM
same,EC50,"[1]; MDCK, Influenza A H1N1 A/Solomon Is./3/2006-M, Drug Assay Visual",10 µM
same,EC50,"[1]; MDCK, Influenza A H1N1 California/04/2009-M, Visual",10 µM
same,EC50,"[1]; MDCK, Influenza A H1N1 Solomon Is./3/2006-M, Visual",10 µM
same,EC50,"[1]; MDCK, Influenza A H3N2 Victoria/3/75-M, Visual",10 µM
same,EC50,"[1]; MDCK, Influenza A H5N1 A/Hong Kong/213/2003, Drug Assay Visual",4.2 µM
same,EC50,[1]; [17],10 µM
same,EC90,[1]; [17],9 µM
same,EC50,"[1]; MDCK, Influenza A H5N1 Hong Kong/213/2003, Visual",43 µM
same,EC50,"[1]; MDCK, Influenza A H7N9 A/Anhui/1/2013, Drug Assay Visual",3.2 µM
same,EC50,"[1]; MDCK, Influenza B Sichuan/379/99-M, Visual",10 µM
same,EC50,H1N1 California/07/2009 [2],8.5 µM and 6.8 µM and 10 µM
same,EC50,"H1N1 California/07/2009 [2]; Influenza A virus, H1N1, MDCK, read-out: EC50 (μM) H1N1 California/07/2009",10 to 25 µM
same,EC50,[9],2.81 µM
same,EC90,[9],11.8 µM
same,EC50,[10],14.6 µM
same,EC90,[10],> 100 µM
same,EC50,[11],4.8 µM
same,EC50,H3N2 Perth/16/2009 [4]; [18],1.5 to 10 µM
same,EC50,[12],9.3 µM and 9.6 µM and 8.9 µM
same,EC50,[12]; MDCK,9.8 µM
same,EC50,"H7N9 A/Anhui/1/2013; Influenza A virus, H7N9, MDCK, Influenza A H7H9 A/Anhui/1/2013, Neutral Red",18 µM
same,EC50,"H7N9 A/Anhui/1/2013; Influenza A virus, H7N9, MDCK, Influenza A H7N9 A/Anhui/1/2013, Drug Assay Neutral Red",3 µM
same,EC50,[13],6.53 µM
same,EC90,[13],16.2 µM
same,EC50,H3N2 Perth/16/2009 [5]; [18],10 to 25 µM
same,EC50,"[7]; Influenza A virus, H5N1, MDCK, Influenza A H5N1 A/Hong Kong/213/2003, Drug Assay Neutral Red",3.6 µM
same,EC50,"[7]; Influenza A virus, H5N1, MDCK, Influenza A H5N1 Hong Kong/213/2003, Neutral Red",39 µM
same,EC50,H5N1 A/Duck/MN/1525/81,5.6 µM
same,EC50,"H5N1 A/Duck/MN/1525/81; Influenza A virus, H5N1, MDCK",9.6 µM
same,EC50,[14],66.2 µM
same,EC90,[14],> 100 µM
same,EC50,H1N1 A/Brisbane/59/2007,5.6 µM
same,EC50,"H1N1 A/Brisbane/59/2007; Influenza A virus, H1N1, MDCK",7.2 µM
same,EC50,[15],5.6 µM
same,CC50,in vitro; CC50 (μM) H1N1 California/07/2009,> 100 µM
same,CC50,in vitro; CC50 (μM) H3N2 Perth/16/2009,> 100 µM
same,EC90,"H1N1 California/07/2009 [8]; Influenza A virus, H1N1, MDCK",5.5 µM
same,EC50,"H1N1 California/07/2009 [8]; Influenza A virus, H1N1, MDCK",1.5 to 10 µM
same,CC50,"[16]; MDCK cells, run with Influenza A H5N1 Duck/MN/1525/81, Neutral Red",> 320 µM
same,CC50,"[16]; MDCK cells, run with Influenza A H5N1 Duck/MN/1525/81, Visual",> 320 µM
same,CC50,"[16]; MDCK cells, run with Influenza A H5N1 Hong Kong/213/2003, Neutral Red",> 1000 µM
same,CC50,"[16]; MDCK cells, run with Influenza A H5N1 Hong Kong/213/2003, Visual",> 1000 µM
same,CC50,"[16]; run with Influenza A H5N1 A/Hong Kong/213/2003, Neutral Red",> 1000 µM
same,CC50,"[16]; run with Influenza A H5N1 A/Hong Kong/213/2003, Visual",> 1000 µM
same,CC50,"[16]; run with Influenza A H7N9 A/Anhui/1/2013, Neutral Red",> 1000 µM
same,CC50,"[16]; run with Influenza A H7N9 A/Anhui/1/2013, Visual",> 1000 µM

# From US10059741B2 (priority 2015, dated 2018)
